Data: ChEMBL document CHEMBL1201862, “PubChem BioAssay data set” (2004)
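Growth conditions: 96-well plates. Treatment: test compound, 48 hours, 5 concentrations. Analysis: linear interpolation between bracketing concentrations; unreached endpoints set to highest concentration. At the GI50, growth is halved.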 Active and inactive are the calls of the source. Cut-off read from the data, not from the text of the source: active = GI50 up to about 1.1 µM and inactive = higher.

Experiments:
Experiment in all cases: NCI tumour cell line growth inhibition, 48 h
MOLT-4 = test system: MOLT-4
Hs-578T = test system: Hs-578T
SR = test system: SR
OVCAR-3 = test system: OVCAR-3
SF-295 = test system: SF-295
NCI-H226 = test system: NCI-H226
HCT-15 = test system: HCT-15
786-0 = test system: 786-0
DU-145 = test system: DU-145
SF-268 = test system: SF-268
NCI/ADR-RES = test system: NCI/ADR-RES
TK-10 = test system: TK-10
UO-31 = test system: UO-31
MDA-MB-435 = test system: MDA-MB-435
LOX IMVI = test system: LOX IMVI
HL-60 = test system: HL-60
T47D = test system: T47D
SNB-19 = test system: SNB-19
ACHN = test system: ACHN
MDA-MB-231 = test system: MDA-MB-231
PC-3 = test system: PC-3
OVCAR-5 = test system: OVCAR-5
KM12 = test system: KM12
HOP-62 = test system: HOP-62
UACC-257 = test system: UACC-257
BT-549 = test system: BT-549
UACC-62 = test system: UACC-62
CCRF-CEM = test system: CCRF-CEM
A549 = test system: A549
SNB-75 = test system: SNB-75
EKVX = test system: EKVX
SK-MEL-2 = test system: SK-MEL-2
NCI-H460 = test system: NCI-H460
IGROV-1 = test system: IGROV-1
NCI-H522 = test system: NCI-H522
OVCAR-8 = test system: OVCAR-8
CAKI-1 = test system: CAKI-1
U-251 = test system: U-251
SK-OV-3 = test system: SK-OV-3
Malme-3M = test system: Malme-3M
HOP-92 = test system: HOP-92
OVCAR-4 = test system: OVCAR-4
RPMI-8226 = test system: RPMI-8226
SW-620 = test system: SW-620
NCI-H23 = test system: NCI-H23
SK-MEL-5 = test system: SK-MEL-5
K562 = test system: K562
COLO 205 = test system: COLO 205
A498 = test system: A498
SK-MEL-28 = test system: SK-MEL-28
HCT-116 = test system: HCT-116
HT-29 = test system: HT-29
RXF 393 = test system: RXF 393
HCC 2998 = test system: HCC 2998
M14 = test system: M14
SN12C = test system: SN12C
SF-539 = test system: SF-539
MDA-N = test system: MDA-N
MCF7 = test system: MCF7

**Q.** How did the GI50 (MOLT-4) turn out when `CON(C(=O)OC(C)(C)C)c1ccccc1` was run?
**A.** > 100 µM (inactive)

**Q.** What about the GI50 (Hs-578T) of the same compound?
**A.** > 100 µM (inactive)

**Q.** What about the GI50 (SR) of the same compound?
**A.** > 100 µM (inactive)

**Q.** What about the GI50 (OVCAR-3) of the same compound?
**A.** > 100 µM (inactive)

**Q.** What about the GI50 (SF-295) of the same compound?
**A.** > 100 µM (inactive)

**Q.** What about the GI50 (NCI-H226) of the same compound?
**A.** > 100 µM (inactive)

**Q.** And the GI50 (HCT-15)?
**A.** > 100 µM

**Q.** What about the GI50 (786-0) of the same compound?
**A.** > 100 µM (inactive)

**Q.** And the GI50 (DU-145)?
**A.** > 100 µM (inactive)

**Q.** And the GI50 (SF-268)?
**A.** > 100 µM (inactive)

**Q.** And the GI50 (NCI/ADR-RES)?
**A.** > 100 µM (inactive)

**Q.** What about the GI50 (TK-10) of the same compound?
**A.** > 100 µM (inactive)

**Q.** And the GI50 (UO-31)?
**A.** > 100 µM (inactive)

**Q.** What about the GI50 (MDA-MB-435) of the same compound?
**A.** > 100 µM (inactive)

**Q.** And the GI50 (LOX IMVI)?
**A.** > 100 µM (inactive)

**Q.** And the GI50 (HL-60)?
**A.** > 100 µM (inactive)

**Q.** And the GI50 (T47D)?
**A.** > 100 µM (inactive)

**Q.** And the GI50 (SNB-19)?
**A.** > 100 µM (inactive)

**Q.** And the GI50 (ACHN)?
**A.** > 100 µM (inactive)

**Q.** And the GI50 (MDA-MB-231)?
**A.** > 100 µM (inactive)

**Q.** What about the GI50 (PC-3) of the same compound?
**A.** > 100 µM (inactive)

**Q.** And the GI50 (OVCAR-5)?
**A.** > 100 µM (inactive)

**Q.** And the GI50 (KM12)?
**A.** > 100 µM (inactive)

**Q.** What about the GI50 (HOP-62) of the same compound?
**A.** > 100 µM (inactive)

**Q.** And the GI50 (UACC-257)?
**A.** > 100 µM (inactive)

**Q.** And the GI50 (BT-549)?
**A.** 43.6 µM (inactive)

**Q.** What about the GI50 (UACC-62) of the same compound?
**A.** > 100 µM (inactive)

**Q.** And the GI50 (CCRF-CEM)?
**A.** > 100 µM (inactive)

**Q.** What about the GI50 (A549) of the same compound?
**A.** > 100 µM (inactive)

**Q.** What about the GI50 (SNB-75) of the same compound?
**A.** > 100 µM (inactive)

**Q.** And the GI50 (EKVX)?
**A.** > 100 µM (inactive)

**Q.** And the GI50 (SK-MEL-2)?
**A.** > 100 µM (inactive)

**Q.** And the GI50 (NCI-H460)?
**A.** > 100 µM (inactive)

**Q.** What about the GI50 (IGROV-1) of the same compound?
**A.** > 100 µM (inactive)

**Q.** What about the GI50 (NCI-H522) of the same compound?
**A.** > 100 µM (inactive)

**Q.** What about the GI50 (OVCAR-8) of the same compound?
**A.** > 100 µM (inactive)

**Q.** And the GI50 (CAKI-1)?
**A.** > 100 µM (inactive)

**Q.** And the GI50 (U-251)?
**A.** > 100 µM (inactive)

**Q.** What about the GI50 (SK-OV-3) of the same compound?
**A.** > 100 µM (inactive)

**Q.** What about the GI50 (Malme-3M) of the same compound?
**A.** > 100 µM (inactive)

**Q.** What about the GI50 (HOP-92) of the same compound?
**A.** > 100 µM (inactive)

**Q.** And the GI50 (OVCAR-4)?
**A.** > 100 µM (inactive)

**Q.** And the GI50 (RPMI-8226)?
**A.** > 100 µM (inactive)

**Q.** And the GI50 (SW-620)?
**A.** > 100 µM (inactive)

**Q.** What about the GI50 (NCI-H23) of the same compound?
**A.** > 100 µM (inactive)

**Q.** And the GI50 (SK-MEL-5)?
**A.** > 100 µM (inactive)

**Q.** And the GI50 (K562)?
**A.** > 100 µM (inactive)

**Q.** And the GI50 (COLO 205)?
**A.** > 100 µM (inactive)

**Q.** And the GI50 (A498)?
**A.** > 100 µM (inactive)

**Q.** And the GI50 (SK-MEL-28)?
**A.** > 100 µM (inactive)

**Q.** What about the GI50 (HCT-116) of the same compound?
**A.** > 100 µM (inactive)

**Q.** And the GI50 (HT-29)?
**A.** > 100 µM (inactive)

**Q.** And the GI50 (RXF 393)?
**A.** > 100 µM (inactive)

**Q.** What about the GI50 (HCC 2998) of the same compound?
**A.** > 100 µM (inactive)

**Q.** What about the GI50 (M14) of the same compound?
**A.** > 100 µM (inactive)

**Q.** For `COC(=O)C1=COC(OC2OC(CO)C(O)C(O)C2O)C2C3CN4CCc5c([nH]c6ccccc56)C4(CC12)O3` (stereo not drawn), which GI50 (MOLT-4) is on record?
**A.** > 100 µM (inactive)

**Q.** What about the GI50 (SR) of the same compound?
**A.** > 100 µM (inactive)

**Q.** What about the GI50 (OVCAR-3) of the same compound?
**A.** > 100 µM (inactive)

**Q.** What about the GI50 (SF-295) of the same compound?
**A.** > 100 µM (inactive)

**Q.** And the GI50 (SN12C)?
**A.** > 100 µM (inactive)

**Q.** And the GI50 (NCI-H226)?
**A.** > 100 µM (inactive)

**Q.** What about the GI50 (HCT-15) of the same compound?
**A.** > 100 µM

**Q.** And the GI50 (786-0)?
**A.** > 100 µM (inactive)

**Q.** And the GI50 (DU-145)?
**A.** > 100 µM (inactive)

**Q.** And the GI50 (SF-268)?
**A.** 31.9 µM (inactive)

**Q.** What about the GI50 (NCI/ADR-RES) of the same compound?
**A.** > 100 µM (inactive)

**Q.** What about the GI50 (TK-10) of the same compound?
**A.** > 100 µM (inactive)

**Q.** What about the GI50 (UO-31) of the same compound?
**A.** > 100 µM (inactive)

**Q.** What about the GI50 (LOX IMVI) of the same compound?
**A.** > 100 µM (inactive)

**Q.** And the GI50 (HL-60)?
**A.** > 100 µM (inactive)

**Q.** What about the GI50 (T47D) of the same compound?
**A.** > 100 µM (inactive)

**Q.** And the GI50 (SNB-19)?
**A.** > 100 µM (inactive)

**Q.** And the GI50 (ACHN)?
**A.** > 100 µM (inactive)

**Q.** What about the GI50 (MDA-MB-231) of the same compound?
**A.** > 100 µM (inactive)

**Q.** What about the GI50 (PC-3) of the same compound?
**A.** > 100 µM (inactive)

**Q.** What about the GI50 (OVCAR-5) of the same compound?
**A.** > 100 µM (inactive)

**Q.** What about the GI50 (KM12) of the same compound?
**A.** > 100 µM (inactive)

**Q.** What about the GI50 (HOP-62) of the same compound?
**A.** > 100 µM (inactive)

**Q.** What about the GI50 (UACC-257) of the same compound?
**A.** > 100 µM (inactive)

**Q.** What about the GI50 (BT-549) of the same compound?
**A.** > 100 µM (inactive)

**Q.** What about the GI50 (UACC-62) of the same compound?
**A.** > 100 µM (inactive)

**Q.** What about the GI50 (A549) of the same compound?
**A.** > 100 µM (inactive)

**Q.** And the GI50 (SNB-75)?
**A.** > 100 µM (inactive)

**Q.** And the GI50 (EKVX)?
**A.** > 100 µM (inactive)

**Q.** What about the GI50 (SK-MEL-2) of the same compound?
**A.** > 100 µM (inactive)

**Q.** And the GI50 (NCI-H460)?
**A.** > 100 µM (inactive)

**Q.** And the GI50 (IGROV-1)?
**A.** 46.5 µM (inactive)

**Q.** What about the GI50 (SF-539) of the same compound?
**A.** > 100 µM (inactive)

**Q.** What about the GI50 (OVCAR-8) of the same compound?
**A.** > 100 µM (inactive)

**Q.** And the GI50 (CAKI-1)?
**A.** < 0.01 µM (active)

**Q.** And the GI50 (U-251)?
**A.** > 100 µM (inactive)

**Q.** What about the GI50 (SK-OV-3) of the same compound?
**A.** > 100 µM (inactive)

**Q.** What about the GI50 (Malme-3M) of the same compound?
**A.** > 100 µM (inactive)

**Q.** And the GI50 (OVCAR-4)?
**A.** > 100 µM (inactive)

**Q.** What about the GI50 (RPMI-8226) of the same compound?
**A.** > 100 µM (inactive)

**Q.** What about the GI50 (SW-620) of the same compound?
**A.** > 100 µM (inactive)

**Q.** And the GI50 (NCI-H23)?
**A.** > 100 µM (inactive)

**Q.** And the GI50 (SK-MEL-5)?
**A.** > 100 µM (inactive)

**Q.** And the GI50 (MDA-N)?
**A.** > 100 µM (inactive)

**Q.** And the GI50 (K562)?
**A.** > 100 µM (inactive)

**Q.** And the GI50 (COLO 205)?
**A.** > 100 µM (inactive)

**Q.** What about the GI50 (A498) of the same compound?
**A.** > 100 µM (inactive)

**Q.** What about the GI50 (SK-MEL-28) of the same compound?
**A.** > 100 µM (inactive)

**Q.** What about the GI50 (HCT-116) of the same compound?
**A.** > 100 µM (inactive)

**Q.** What about the GI50 (HT-29) of the same compound?
**A.** > 100 µM (inactive)

**Q.** And the GI50 (MCF7)?
**A.** > 100 µM (inactive)

**Q.** And the GI50 (RXF 393)?
**A.** > 100 µM (inactive)

**Q.** And the GI50 (M14)?
**A.** > 100 µM (inactive)
